19 compounds from patent US4269848A, “5-Substituted indan-2-carboxylic acid and functional derivatives” (Lipha, Lyonnaise Industrielle Pharmaceutique, priority 1976, dated 1981) can be followed below.

Counter-ions that a name gives are not always drawn.

Data set [1] is described as follows: Acute toxicity, LD 50 (oral route), mice. The conditions noted are these: mouse, in vivo. The text has this:
A--The substances are of low toxicity. For example, the LD 50 value (oral route), determined in mice, of various compounds in accordance with the present invention are shown in column A of Table I.

The test system of data set [2] is erythema produced by ultra violet radiation. Description: Protective effect against erythema from ultra violet radiation (Winder et al.). It is filed as in vivo, albino guinea pigs. The conditions noted are these: Cavia porcellus; albino guinea pig, oral; amount reducing erythema by 50%; read-out: AD50, U.V. The protocol:
D--The protective effect against inflammation resulting from exposure to radiation was determined in albino guinea pigs using the method of Winder et al (Arch. Inv. Pharmacodyn. 1958, Vol. 116, page 261). The AD50 value was determined for the test substance, namely the amount which, when administered to the animal orally, reduced by 50% the erythema produced by exposing the shaved dorsal skin of the guinea pig to ultra violet radiation.

Another data set concerns platelets. Description: In vitro inhibition of platelet aggregation induced by collagen (Born). It counts as cell-based. The conditions noted are these: read-out: minimal active concentration, Platelet Aggregation Induced By Collagen. The protocol: E--The anti-inflammatory activity was also determined by the aggregation-inhibiting effect of the compounds in accordance with the present invention, in vitro, on platelets the aggregation of which was induced by collagen, in accordance with the method of Born (Journal of Physiology, 1962, Vol. 162, page 67). It is known that compounds which inhibit the activity or quantity of prostaglandin synthetase will inhibit the formation of prostaglandin PGE2 and the inflammatory and pyretic effect thereof. Since prostaglandin PGE2 also causes an increase in platelet aggregation, this test is an effective indication of anti-inflammatory and anti-pyretic activity due to inhibition of prostaglandin synthetase.

The test system of data set [3] is carrageenin-induced edema. Kind of data set: Anti-inflammatory activity, carrageenin-induced edema test (Winter et al.). The settings on record: rat, oral; dose inhibiting edema by 30%; read-out: AD30, Carrageenin. It is filed as in vivo. The text has this:
The protection afforded, by oral administration of the compound to a rat against edema induced by injecting a suspension of carrageenin under the arch of the foot of the animal was investigated. The AD30 dose is that which inhibits the edema by 30%.
For orientation: The carrageenan paw model is a standard test of acute inflammation.

Data set [4] relates to spasms of pain caused by the intraperitoneal injection of a solution of acetic acid. Description: Analgesic activity, acetic acid induced spasms of pain (Koster et al.). It counts as in vivo. The settings on record: mouse, oral; dose reducing spasms of pain by 50%; read-out: AD50, Acetic Acid. The protocol:
B--Analgesic activity in the mouse was determined by the method of Koster et al. (Fed. Proc. 1959, Vol. 18, page 412). The active dose 50 (AD50) value for various compounds in accordance with the present invention was determined, namely, that dose which, when administered orally, reduces by 50% the spasms of pain caused by the intraperitoneal injection of a solution of acetic acid.

As to `CCN(CC)CCOC(=O)C1Cc2ccc(C(=O)c3cccs3)cc2C1` (centres unmarked) [2'-(N,N-diethylaminoethyl) 5-(2'-thenoyl)-indan-2-carboxylate, hydrochloride], in data set [1], the LD50 – broadly, the dose at which mortality reaches 50% – stood at 2160 mg/kg. The ED50 in data set [2] was found to be 10 mg/kg; in data set [4] it was 4 mg/kg. Moreover, the minimal effective concentration with platelets is 0.25 µg/mL. Further, in data set [3], the ED30 was found to be 8 mg/kg.
For `Cc1ccsc1C(=O)c1ccc2c(c1)CC(C(=O)O)C2` (centres unmarked) [5-(3'-Methyl-2'-thenoyl)-indan-2-carboxylic acid], in that order: 1200 mg/kg, 25 mg/kg, 37 mg/kg, 10 µg/mL and 26 mg/kg.
For `NS(=O)(=O)c1ccc(C(=O)c2ccc3c(c2)CC(C(=O)O)C3)cc1` (centres unmarked) [5-(p-sulfamidobenzoyl)-indan-2-carboxylic acid], in that order: > 3200 mg/kg, 90 mg/kg, 25 mg/kg, 5 µg/mL and 43 mg/kg.
In data set [1], `O=C(c1ccc2c(c1)CC(C(=O)O)C2)c1cccs1` (centres unmarked) [5-(2'-thenoyl)-indan-2-carboxylic acid] yielded an LD50 of 1200 mg/kg. Also, the ED50 came to 21 mg/kg in data set [2] and 6.5 mg/kg in data set [4]. In addition, in the data set with platelets, the minimal effective concentration was 2.5 µg/mL. Further, in data set [3], the ED30 is 10 mg/kg.
As for `CN(C)c1ccc(C(=O)c2ccc3c(c2)CC(C(=O)O)C3)cc1` (centres unmarked) [5-(4'-dimethylaminobenzoyl)-indan-2-carboxylic acid], the 50% lethal dose (LD50) in data set [1] is 960 mg/kg. The values for the ED50 in data set [2] and in data set [4] were 20 mg/kg and 3 mg/kg, respectively. Besides, the minimal effective concentration in the data set on platelets was 0.5 µg/mL. In data set [3], the ED30 worked out at 14 mg/kg.
Take `O=C(c1ccc2c(c1)CC(C(=O)O)C2)c1ccco1` (centres unmarked) [5-(2'-furoyl)-indan-2-carboxylic acid, 5-(2'-Furoyl)-indan-2-carboxylic acid]: in data set [1], the 50% lethal dose (LD50) is 1000 mg/kg. In addition, the ED50 came to 14 mg/kg in data set [2] and 11 mg/kg in data set [4]. Besides, the minimal effective concentration in the data set on platelets came to 1 µg/mL. The ED30 in data set [3] stood at 23 mg/kg.
In data set [1], `Cc1ccc(C(=O)c2ccc3c(c2)CC(C(=O)O)C3)o1` (centres unmarked) [5-(5'-Methyl-2'-furoyl)-indan-2-carboxylic acid] had an LD50 of 2400 mg/kg. For the same compound, the ED50 in data set [2] was found to be 16 mg/kg; in data set [4], 8 mg/kg. Also, the minimal effective concentration with platelets amounted to 1 µg/mL. Moreover, the ED30 in data set [3] is 10 mg/kg.
The like results for `CCN(CC)CCNC(=O)C1Cc2ccc(C(=O)c3ccccc3)cc2C1` (centres unmarked) [N-[2'-(N',N'-diethylaminoethyl)] 5-benzoyl-indan-2-carboxamide] were, in that order, 1100 mg/kg, 25 mg/kg, 30 mg/kg, 2.5 µg/mL and 9 mg/kg.
The compound `COC(=O)C1Cc2ccc(C(=O)c3ccco3)cc2C1` (centres unmarked) [methyl 5-(2'-furoyl)-indan-2-carboxylate, Methyl 5-(2'-furoyl)-indan-2-carboxylate] gave an LD50 in data set [1] of 3200 mg/kg. Also, the ED50 amounted to 19 mg/kg in data set [2] and 9 mg/kg in data set [4]. The minimal effective concentration in the data set with platelets amounted to 1 µg/mL. In data set [3], the ED30 amounted to 13 mg/kg.
The like results for `CCOC(=O)C1Cc2ccc(C(=O)c3ccc(NC(C)=O)c(Cl)c3)cc2C1` (centres unmarked) [Ethyl 5-(4'-acetamido-3'-chlorobenzoyl)-indan-2-carboxylate] were, in that order, 3200 mg/kg, 80 mg/kg, 35 mg/kg, 5 µg/mL and 60 mg/kg.
For `CCN(CC)CCOC(=O)C1Cc2ccc(C(=O)c3ccco3)cc2C1` (centres unmarked) [2'-(N,N-diethylaminoethyl) 5-(2'-furoyl)-indan-2-carboxylate], in that order: 1200 mg/kg, 20 mg/kg, 8 mg/kg, 1 µg/mL and 18 mg/kg.
The like results for `O=C(c1ccoc1)c1ccc2c(c1)CC(C(=O)O)C2` (centres unmarked) [5-(3'-furoyl)-indan-2-carboxylic acid, 5-(3'-Furoyl)-indan-2-carboxylic acid] were, in that order, 2400 mg/kg, 18 mg/kg, 16 mg/kg, 5 µg/mL and 20 mg/kg.
`COc1ccc(C(=O)c2ccc3c(c2)CC(C(=O)O)C3)cc1` (centres unmarked) [5-(4'-Methoxybenzoyl)-indan-2-carboxylic acid] came in with an LD50 in data set [1] of 650 mg/kg. The ED50 in data set [2] worked out at 34 mg/kg; in data set [4] it was 6 mg/kg. Further, the minimal effective concentration with platelets came out at 2.5 µg/mL. Moreover, in data set [3], the ED30 came to 13 mg/kg.
`CCN(CC)CCNC(=O)C1Cc2ccc(C(=O)c3cc(Cl)ccc3Cl)cc2C1` (centres unmarked) [N-[2'-(N',N'-diethylaminoethyl)]5-(2',5'-dichlorobenzoyl)-indan-2-carboxamide]: the LD50 in data set [1] was 720 mg/kg. Further, the ED50 in data set [2] turned out to be 50 mg/kg; in data set [4], 15 mg/kg. Moreover, the minimal effective concentration with platelets worked out at 2.5 µg/mL. For the same compound, in data set [3], the ED30 was 25 mg/kg.
Take `O=C(c1ccccc1)c1ccc2c(c1)CC(C(=O)O)C2` (centres unmarked) [5-benzoyl-indan-2-carboxylic acid]: the LD50 in data set [1] was determined as 2100 mg/kg. In addition, the ED50 in data set [2] and in data set [4] was 40 mg/kg in each case. The minimal effective concentration in the data set on platelets was determined as 2.5 µg/mL. Besides, the ED30 in data set [3] is 18 mg/kg.
For `CCN(CC)CCNC(=O)C1Cc2ccc(C(=O)c3cccs3)cc2C1` (centres unmarked) [N-[2'-(N',N'-diethylaminoethyl)]5-(2'-thenoyl)-indan-2-carboxamide], the median lethal dose (LD50) in data set [1] stood at 660 mg/kg. Moreover, the figures for the ED50 in data set [2] and in data set [4] were 10 mg/kg and 2.5 mg/kg, respectively. In addition, in the data set on platelets, the minimal effective concentration is 0.25 µg/mL. Moreover, the ED30 in data set [3] worked out at 8 mg/kg.
For `CS(=O)(=O)c1ccc(C(=O)c2ccc3c(c2)CC(C(=O)O)C3)cc1` (centres unmarked) [5-(p-methylsulfonylbenzoyl)-indan-2-carboxylic acid], in that order: 2800 mg/kg, 10 mg/kg, 35 mg/kg, 1 µg/mL and 40 mg/kg.
Compound `CN(C)S(=O)(=O)c1ccc(C(=O)c2ccc3c(c2)CC(C(=O)O)C3)cc1` (centres unmarked) [5-(p-dimethylaminosulfonylbenzoyl)-indan-2-carboxylic acid] displayed an LD50 in data set [1] of 2600 mg/kg. The ED50 was > 300 mg/kg in data set [2] and 80 mg/kg in data set [4]. The minimal effective concentration in the data set with platelets turned out to be 10 µg/mL. In data set [3], the ED30 was 160 mg/kg.
The like results for `O=C(c1ccc2c(c1)CC(C(=O)O)C2)c1cc(Cl)c(Cl)s1` (centres unmarked) [5-(4',5'-dichloro-2'-thenoyl)-indan-2-carboxylic acid] were, in that order, 180 mg/kg, 90 mg/kg, 30 mg/kg, 7.5 µg/mL and 42 mg/kg.
